Where a SMILES comes first, the peptide text is derived from it.
How the values were obtained:
[1] = tested on: HTLV-111B/H9 New York; experiment: Infectivity assay HTLV-IIIB/H9 New York: p24 ELISA (absorbance 454 nm of diluted supernatant), syncytia, immunofluorescence; assay type: cell-based, HIV-1; conditions: for # OF SYNCYTIA/WELL Day 14 / PERCENTAGE OF AG POS CELLS / p24 1/10 / p24 1/100 / p24 1/1,000: Table 6; for HIV infection by p24 synthesis and syncytia formation, in words: Tables 3-6
Description: Virus at 100 50% tissue culture infectious doses (TCID50) and peptides at concentrations of 250 and 25 μg/ml were added to the cells simultaneously and incubated for 2 hours at 4° C. with frequent stirring. Subsequently, the temperature was increased to 37° C. and the mixtures were subjected to a second incubation for 2 hours. Following the second incubation, the cells were centrifuged at 325 x g and washed once in RPMI medium (Gibco Laboratories, N.Y.). Cells, at a concentration of 5×10^5 /ml, were then added to 24 multidish well plates at a final volume of 1.5 ml of growth medium (RPMI supplemented with 10% fetal calf serum (FCS), antibiotics and polybrene (2 μg/ml)), with the addition of peptides at dilutions of 250 or 25 μg/ml. […] As additional controls, two HIV infected cell cultures (designated pos. controls 1 and 2, Tables 3-5) and two uninfected cell cultures (designated neg. controls 1 and 2) were used.
Infected cells were continuously monitored for formation of syncytia and the growth medium supernatants were analyzed at days 9-12 p.i. for p24 antigen which is an indicator of HIV replication.
Briefly, the following protocol was used for detection of the p24 antigen. HIV p24 antigen was determined using a rabbit anti-p24 polyclonal antiserum as capture antibody and a biotinylated rabbit anti-p24 polyclonal antibody was used as detecting antibody in an avidin-horse radish peroxidase (HRP) ELISA. The sensitivity of the assay allowed detection of approximately 50 pg of p24 antigen per ml supernatant. […] Serial dilutions of the supernatants were made so as to detect p24 concentration in the most accurate range (<2.0 absorbance units).
The number of infected cells were then determined by indirect immunofluorescence using a human HIV positive serum diluted 1/100 and FITC conjugated antihuman IgG (Bio Merieux, France) diluted 1/200.
In tables 3-6, the p24 content of the supernatants of infected cells was determined by diluting the supernatants of infected cells in serial tenfold dilutions (1/10, 1/100, 1/1000 and 1/10,000) and analyzing in ELISA as described above. Results are indicated by the absorbance values (454nm) of respective dilutions.
In tables 8 and 9, the p24 content of the supernatants of infected cells was determined by diluting the supernatants in serial tenfold dilutions (1/10, 1/100, 1/1,000) and analyzing by ELISA as described in Example 2. Results are indicated by the absorbance values (454 nm) of respective dilutions.

[2] = tested on: herpes simplex virus type I (HSV-1) strain McIntyre; experiment: Yield inhibition assay of HSV-1 in GMK cells; assay type: cell-based; conditions: plaque reduction and virus yields
Description: The yield inhibition assay was performed as follows: HSV-1 was inoculated at a multiplicity of 0.5 pfu per GMK cell in the presence of the respective peptide at concentrations of 250 and 25 μg/ml. Virus adsorption was performed for 60 min. at room temperature. The cells were then rinsed five times with Hanks' Balanced Salt Solution (BSS) and incubated in a 5% CO2 atmosphere at 37° C. with maintenance medium containing either peptides or acyclovir, according to the methods described in "Proceedings of a Symposium on Acyclovir", The American Journal of Medicine, Jul. 20, (1982) which is incorporated herein by reference, or without any additives. Twenty-four hours p.i. the cells were freeze-thawed, scraped into the medium and tested for virus yield by the infectivity assay as outlined in Example 2. The results are shown in Table 7 where the plaque reduction values are the mean of two cultures and the yield of HSV-1 after 24 hours is the mean of two determinations and the values are presented in millions of pfu/ml.

[3] = tested on: normal T cells; experiment: In vitro proliferative response of normal T cells to mitogens, stimulation index; assay type: cell-based, human
Description: The in vitro proliferative response of normal T cells was examined after concurrent exposure of unfractionated, and T cell enriched (CD4^+ or CD8^+ enriched using DYNABEADS M-450 CD4 and DYNABEADS M-450 CD, magnetic beads according to the manufacturer's instructions, DYNAL A. S. Oslo Norway).
The results are indicated as the stimulation index which is calculated as follows: the ratio between radioactive Thymidine incorporated in cell cultures exposed to mitogen alone or mitogen plus Gly-Pro-Gly divided by the radioactive Thymidine incorporated in identical cell cultures exposed to medium alone.

[4] = Humoral anti-TNP antibody response in mice pretreated with Gly-Pro-Gly, ELISA endpoint titer; assay type: in vivo; conditions: 5 mg/day/animal for 5 days
Description: The effects of Gly-Pro-Gly on development of humoral specific antibody responses was examined in mice. For this purpose, Gly-Pro-Gly was administered in adult (4 weeks old, sex matched) Swiss albino outbred mice by intraperitoneal injections given daily for 5 consecutive days. The control group was not given Gly-Pro-Gly, whereas the second and third groups were given 0.5 mg and 5 mg Gly-Pro-Gly respectively. […]
Serum antibody responses to the TNP group were monitored by the ELISA technique performed on serum samples collected 2 weeks after the second injection. […]
ELISA assays were performed as follows. […] TNP-reactive antibodies were then detected by stepwise addition of enzyme labelled goat antibodies to mouse IgG1, IgG2a, IgG2b, IgG3 or IgM (all obtained from Southern Biotechnology Associates, Birmingham, Ala.) and enzyme substrate. Results are expressed as endpoint titer, the latter being defined as the reciprocal of the highest dilution of serum giving an ELISA absorbance value equal to 3 times that of control wells exposed to buffer alone but not serum.

[5] = In vivo toxicity: growth of mice given intraperitoneal Gly-Pro-Gly; design: Mean weight of mice: unit not given here
Text: In an in vivo test of the toxicity of Gly-Pro-Gly, groups of mice were given intraperitoneal injections of the substance starting at an age of 6 days. FIG. 3 also graphically depicts the results. […] The peptides are thus nontoxic even when given in large doses.

Question: Which results are given for “Gly-Pro-Gly-Gly (GPGG; printed: Gly-Pro-Gly-Gly)”?
Answer: # OF SYNCYTIA/WELL Day 14 ([1]; 25 μg/ml): 15; PERCENTAGE OF AG POS CELLS ([1]; 25 μg/ml): 25-30%; p24 1/10 ([1]; 25 μg/ml): 0.933; p24 1/100 ([1]; 25 μg/ml): 0.11; p24 1/1,000 ([1]; 25 μg/ml): 0.016; # OF SYNCYTIA/WELL Day 14 ([1]; 250 μg/ml): 20; PERCENTAGE OF AG POS CELLS ([1]; 250 μg/ml): 30%; p24 1/10 ([1]; 250 μg/ml): 0.523; p24 1/100 ([1]; 250 μg/ml): 0.052; p24 1/1,000 ([1]; 250 μg/ml): 0.007; HIV infection by p24 synthesis and syncytia formation, in words [1]: no inhibitory effect on HIV replication

Question: What does the source list for Gly-Pro-Ala?
Answer: # OF SYNCYTIA/WELL Day 14 ([1]; 25 μg/ml): 85; PERCENTAGE OF AG POS CELLS ([1]; 25 μg/ml): 30-40%; p24 1/10 ([1]; 25 μg/ml): > 2.0; p24 1/100 ([1]; 25 μg/ml): 0.616; p24 1/1,000 ([1]; 25 μg/ml): 0.154; # OF SYNCYTIA/WELL Day 14 ([1]; 250 μg/ml): 20; PERCENTAGE OF AG POS CELLS ([1]; 250 μg/ml): 20-30%; p24 1/10 ([1]; 250 μg/ml): > 2.0; p24 1/100 ([1]; 250 μg/ml): 0.299; p24 1/1,000 ([1]; 250 μg/ml): 0.059; HIV infection by p24 synthesis and syncytia formation, in words [1]: no inhibitory effect on HIV replication

Question: Which “capacity of HSV-1 to replicate in GMK cells, in words” value [2] does the source give for `Nc1nc2c(ncn2COCCO)c(=O)[nH]1` [Acyclovir, acyclovir] here?
Answer: significantly reduced

Question: Which “direct anti-proliferative properties on T cells” value ([3]; doses as high as 20 μM) does the source give for `NCC(=O)N1CCC[C@H]1C(=O)NCC(N)=O` [Gly-Pro-Gly] (H-Gly-Pro-Gly-NH2) here?
Answer: marginal if any

Question: And the “effect on normal T cell and B cell functions” value ([3]; in vitro human, in vivo murine)?
Answer: no effect

Question: And the “humoral immune responsiveness of mice” value [4]?
Answer: do not appreciably influence

Question: What about the “Mean weight of mice” value ([5]; Feb. 25, 0.001 g GPG i.p.) of the same compound?
Answer: 5.66

Question: And the “Mean weight of mice” value ([5]; Feb. 25, 0.1 g GPG i.p.)?
Answer: 4.98

Question: What about the “Mean weight of mice” value ([5]; Feb. 25, 1 g GPG i.p.) of the same compound?
Answer: 5.62

Question: And the “Mean weight of mice” value ([5]; Feb. 26, 0.001 g GPG i.p.)?
Answer: 6.24

Question: What about the “Mean weight of mice” value ([5]; Feb. 26, 0.1 g GPG i.p.) of the same compound?
Answer: 5.54

Question: And the “Mean weight of mice” value ([5]; Feb. 26, 1 g GPG i.p.)?
Answer: 6.27

Question: What about the “Mean weight of mice” value ([5]; Feb. 27, 0.001 g GPG i.p.) of the same compound?
Answer: 6.76

Question: What about the “Mean weight of mice” value ([5]; Feb. 27, 0.1 g GPG i.p.) of the same compound?
Answer: 6.41

Question: And the “Mean weight of mice” value ([5]; Feb. 27, 1 g GPG i.p.)?
Answer: 7.04

Question: And the “Mean weight of mice” value ([5]; Feb. 28, 0.001 g GPG i.p.)?
Answer: 7.40

Question: And the “Mean weight of mice” value ([5]; Feb. 28, 0.1 g GPG i.p.)?
Answer: 7.11

Question: And the “Mean weight of mice” value ([5]; Feb. 28, 1 g GPG i.p.)?
Answer: 7.80

Question: What about the “Mean weight of mice” value ([5]; March 1, 0.001 g GPG i.p.) of the same compound?
Answer: 7.83

Question: And the “Mean weight of mice” value ([5]; March 1, 0.1 g GPG i.p.)?
Answer: 8.00

Question: What about the “Mean weight of mice” value ([5]; March 1, 1 g GPG i.p.) of the same compound?
Answer: 8.61

Question: What about the “Mean weight of mice” value ([5]; March 4, 0.001 g GPG i.p.) of the same compound?
Answer: 9.22

Question: What about the “Mean weight of mice” value ([5]; March 4, 0.1 g GPG i.p.) of the same compound?
Answer: 9.35

Question: And the “Mean weight of mice” value ([5]; March 4, 1 g GPG i.p.)?
Answer: 10.53

Question: What about the “Mean weight of mice” value ([5]; March 5, 0.001 g GPG i.p.) of the same compound?
Answer: 9.63

Question: What about the “Mean weight of mice” value ([5]; March 5, 0.1 g GPG i.p.) of the same compound?
Answer: 10.04

Question: What about the “Mean weight of mice” value ([5]; March 5, 1 g GPG i.p.) of the same compound?
Answer: 11.22

Question: What about the “Mean weight of mice” value ([5]; March 6, 0.001 g GPG i.p.) of the same compound?
Answer: 9.88

Question: What about the “Mean weight of mice” value ([5]; March 6, 0.1 g GPG i.p.) of the same compound?
Answer: 10.35

Question: And the “Mean weight of mice” value ([5]; March 6, 1 g GPG i.p.)?
Answer: 11.44

Question: And the “Mean weight of mice” value ([5]; March 7, 0.001 g GPG i.p.)?
Answer: 9.95

Question: What about the “Mean weight of mice” value ([5]; March 7, 0.1 g GPG i.p.) of the same compound?
Answer: 11.17

Question: And the “Mean weight of mice” value ([5]; March 7, 1 g GPG i.p.)?
Answer: 12.12

Question: And the “Mean weight of mice” value ([5]; March 8, 0.001 g GPG i.p.)?
Answer: 10.30

Question: What about the “Mean weight of mice” value ([5]; March 8, 0.1 g GPG i.p.) of the same compound?
Answer: 11.38

Question: What about the “Mean weight of mice” value ([5]; March 8, 1 g GPG i.p.) of the same compound?
Answer: 12.69

Question: And the “Mean weight of mice” value ([5]; March 15, 0.001 g GPG i.p., no injections 3/8-3/15)?
Answer: 16.59

Question: What about the “Mean weight of mice” value ([5]; March 15, 0.1 g GPG i.p., no injections 3/8-3/15) of the same compound?
Answer: 17.46

Question: What about the “Mean weight of mice” value ([5]; March 15, 1 g GPG i.p., no injections 3/8-3/15) of the same compound?
Answer: 19.85

Question: And the “influence on the growth of mice” value ([5]; compared with controls)?
Answer: no significant influence

Reference: patent publication US5627035A, “Peptides that block human immunodeficiency virus and methods of use thereof” (Syntello Vaccine Development AB, priority 1995, dated 1997)
